Experimental data published in patent publication US5411707A, “Vacuum extractor incorporating a condenser column” (priority 1994, dated 1995).
“And” between values parts separate entries of the source, which are not always exact repeats. Identical values can stand only once. Like-named read-outs stand apart in the source and are kept apart here.

Tests used:
[1] = cited from earlier work
[2] = 1 gram cod liver oil, 200 ppb spike recovery only
From the text: The cryotrap is placed in liquid nitrogen which is replaced as needed throughout the operation. The sample valve is placed in the load position. Samples are placed in the sample chamber and the chamber attached to the apparatus. The coolant/heat valve is adjusted so that the condenser fluid is circulating and at the desired temperature. The vacuum pump is turned on and the vacuum pump valve and sample chamber valve are opened to begin distillation/purging. After five minutes the pressure at the vacuum pump, as measured by a Pirani gauge reads about 0.1 Torr and a Pirani gauge reads less than about 250 Torr at the sample chamber. Distillation continues for another five minutes to complete distillation at which time the sample chamber pressure should be approximately 10 Torr.
Once distillation is complete, the sampling valve is adjusted to the injection position. The liquid nitrogen is removed from the cryotrap and replaced with a beaker of hot (about 90° C.) tap water. The GC/MS then begins to collect data. At this stage, the sample chamber may be removed and the apparatus prepared for another sample. If multiple samples are connected, a new sample chamber may be connected in sequence.

SMILES | SOLUBIL. IN H2O ([1]; in H2O) | further results
Clc1ccccc1Cl [1,2-Dichlorobenzene] | 10000 PPM | 
Cc1ccc(C)c(C)c1 [1,2,4-Trimethyl benzene] |  | SOLUBIL. IN H2O ([1]; water): 1 PPM
CCC(C)c1ccccc1 (stereo not shown) [sec-butylbenzene] | 320 PPM | 
CC(C)(C)c1ccccc1 [tert-Butlybenzene] | 290 PPM | 
CCOCC [Diethyl ether] | 60400 PPM | 
Brc1ccccc1 [Bromobenzene] | 400 PPM | 
C=CCCl [Allyl chloride] | 3600 PPM | 
Nc1ccccc1 [Aniline] | 32500 PPM | 
Clc1cc(Cl)c(Cl)c(Cl)c1Cl [Pentachlorobenzene] | 1 PPM | 
c1ccc2ccccc2c1 [Naphthalene] | 3400 PPM | 
Cc1ccc(O)c(C)c1 [2,4-Dimethylphenol] | 5 PPM | 
CCCN(CCC)N=O [n-Nitroso-di-n-propylamine] | 5 PPM | 
C=CC#N [Acrylonitrile] | 73000 PPM | 
Cc1ccccc1N [o-Toluidine] | 17000 PPM | 
CCC(C)=O [2-Butanone] |  | Oil Recovery (200 ppb spike only) [2]: 128 ± 21.5%
C=C(C)C(=O)OC [Methyl methacrylate] | 16000 PPM | 
Cc1ccccn1 [2-Picoline] |  | SOLUBIL. IN H2O ([1]; water): 1000000 PPM
O=NN1CCOCC1 [n-Nitrosomorpholine] | 1000000 PPM | 
BrCBr [Dibromomethane] | 11500 PPM | 

SMILES | SOLUBIL. IN H2O ([1]; in H2O) | further results
Clc1cccc(Cl)c1Cl [1,2,3-Trichloro benzene] | 1 PPM | 
Cc1cc(O)ccc1Cl [4-Chloro-3-methyl phenol] | 1 PPM | 
CC(C)c1ccccc1 [iso-Propylbenzene] | 5000 PPM | 
CCCc1ccccc1 [n-Propylbenzene] | 60 PPM | 
Clc1cccc(Cl)c1 [1,3-Dichlorobenzene] | 11000 PPM and 10000 PPM | 
c1ccc2c(c1)oc1ccccc12 [Dibenzofuran] | 1 PPM | 
Oc1ccccc1Cl [2-Chlorophenol] | 5 PPM | 
Cc1ccccc1O [2-Methylphenol] | 775000 PPM | 
Cc1cc(C)cc(C)c1 [1,3,5-Trimethyl benzene] | 2000 PPM | 
Nc1ccc(Cl)cc1 [4-Chloroaniline] | 5 PPM | 
CC(=O)c1ccccc1 [Acetophenone] | 5500 PPM | 
Nc1ccccc1[N+](=O)[O-] [2-Nitroaniline] | 5 PPM | 
OCc1ccccc1 [Benzyl alcohol] | 80000 PPM | 
Cc1ccc(Cl)cc1 [4-Chlorotoluene] | 5 PPM | 
CCCCc1ccccc1 [n-Butylbenzene] | 5000 PPM | 
ClCCOCCCl [bis(2-Chloroethyl) ether] | 1 PPM | 
Cc1ccc(C(C)C)cc1 [para-iso-Propyl toluene] | 1 PPM | 
O=NN1CCCCC1 [n-Nitroso-piperidine] | 1000000 PPM | 
